Blank lines part the entries; values can stand above or below the compound they belong to.
How the values were obtained:
D2 /ml receptor = test: Competition binding assay with [3H]-spiperone, D2/ml chimeric receptor; parameters: species or system human; conditions: for Ki: D2/ml Receptor, 0.5 nM [3H]-spiperone, anti-log of mean log Ki, three experiments, Cheng-Prusoff
Experimental: (§1) Cells were detached from culture flasks with EDTA, pelleted at 1,000×g and resuspended in 1× binding buffer (100 mM Tris; 120 mM NaCl; 5 mM KCl; 1 mM MgCl2; 2 mM CaCl2; 1.1 mM ascorbic acid; pH 7.4) at ~1×10^6 cells/ml. Cells were homogenized with a Polytron (Brinkman) and the crude membrane fraction was pelleted at 17,000× g for 10 min. […] Triplicate binding reactions were done in IX binding buffer for 30 min. at 37°, then stopped by filtration through glass-fiber filters (Skatron) that were pre-soaked in 0.1% polyethyleneimine, followed by a 5 sec. wash with ice cold 0.1× binding buffer. […] Competing ligands were all from Research Biochemicals Inc.

D2(414) receptor [1] = target: T1, D2(414) receptor (Homo sapiens, UniProt P14416); conditions: dopamine 100 μM, CHO cells expressing D2(414) receptor (FIG. 3A)
T1 sequence (P14416 1-414 isoform P14416-2): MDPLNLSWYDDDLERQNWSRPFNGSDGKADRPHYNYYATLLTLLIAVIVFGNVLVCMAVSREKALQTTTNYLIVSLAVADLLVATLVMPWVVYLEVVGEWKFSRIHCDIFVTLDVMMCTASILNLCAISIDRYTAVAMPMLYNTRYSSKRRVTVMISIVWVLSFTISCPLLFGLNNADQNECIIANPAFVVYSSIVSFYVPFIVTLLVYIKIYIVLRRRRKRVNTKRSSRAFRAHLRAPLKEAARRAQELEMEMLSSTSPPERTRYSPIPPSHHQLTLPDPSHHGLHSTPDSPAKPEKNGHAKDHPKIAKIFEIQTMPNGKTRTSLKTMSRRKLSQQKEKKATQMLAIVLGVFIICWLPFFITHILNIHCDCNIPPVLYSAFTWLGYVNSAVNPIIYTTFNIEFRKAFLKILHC

D2 /ml chimeric receptor = conditions: dopamine 0.1-1000 μM, CHO cells expressing D2/ml receptor (FIG. 3B)
[2] = system: non-transfected CHO cells; test: [Ca+2]i assay (Fura-2) in non-transfected CHO cells
D2(414) receptor [3] = target: T1, D2(414) receptor; test: Competition binding assay with [3H]-spiperone, D2(414) receptor; parameters: expressed in transfected cells
Experimental: as §1

CHO cells = test: Radioligand specific binding in non-transfected CHO cells; parameters: species or system Chinese hamster; conditions: preliminary studies
Experimental: Cells were detached from culture flasks with EDTA, pelleted at 1,000×g and resuspended in 1× binding buffer (100 mM Tris; 120 mM NaCl; 5 mM KCl; 1 mM MgCl2; 2 mM CaCl2; 1.1 mM ascorbic acid; pH 7.4) at ~1×10^6 cells/ml. Cells were homogenized with a Polytron (Brinkman) and the crude membrane fraction was pelleted at 17,000× g for 10 min. […] Triplicate binding reactions were done in IX binding buffer for 30 min. at 37°, then stopped by filtration through glass-fiber filters (Skatron) that were pre-soaked in 0.1% polyethyleneimine, followed by a 5 sec. wash with ice cold 0.1× binding buffer.

Ki (D2 /ml receptor): 0.027 µM
SMILES: CCCN(CCc1ccccc1)C1CCc2c(O)cccc2C1 (stereo not drawn) [N-0434]

Ki (D2 /ml receptor): 0.045 µM
SMILES: CCN1CCC[C@H]1CNC(=O)c1cc(S(N)(=O)=O)ccc1OC [(-) Sulpiride]

Ki (D2 /ml receptor): 3.6 µM
Difference in Ki between D2(414) and D2/ml receptor (D2 /ml receptor; comparison of Ki at the two receptors, t-test): small
Ki (D2(414) receptor [3]): 2.1 µM
SMILES: CN1CCc2cc(Cl)c(O)cc2[C@@H](c2ccccc2)C1 [SCH-23390]

Ki (D2 /ml receptor): 36 µM
SMILES: Oc1cc2c(cc1O)C(c1ccccc1)CNCC2 (stereo not drawn) [SKF-38393]

More lines, now with the values behind:

SMILES: NCCc1ccc(O)c(O)c1 [Dopamine]
Ki (D2 /ml receptor): 2.1 µM
[Ca+2]i (D2(414) receptor [1]): failed to alter
[Ca+2]i response (D2 /ml chimeric receptor): elevated in a dose dependent manner
[Ca+2]i ([2]; dopamine 1 mM): unaltered

SMILES: C[N+](C)(C)CCOC(N)=O [carbachol]
[Ca+2]i ([2]; carbachol 100 μM): unaltered

SMILES: O=C(CCCN1CCC2(CC1)C(=O)NCN2c1ccccc1)c1ccc(F)cc1 [[^3 H]-spiperone]
Specific binding (CHO cells): no detectable specific binding
